Values of other authors as cited in patent publication US20160128943A1, “CONTROLLED RELEASE CAFFEINE DOSAGE FORMS” (priority 2013, published 2016).

How the values were obtained:
[1] = tested on: central nervous system; settings: after absorption

Cn1c(=O)c2c(ncn2C)n(C)c1=O [caffeine]
time to peak levels in the circulation of the bloodstream (after consumption): fifteen and forty-five | average half-life (average person, after ingestion): three and one half | time to maximum effect of central nervous system stimulation [1]: thirty and sixty
